The target in assay [1] is cellular kallikrein activity (Homo sapiens (Human), UniProt P03952). Put plainly: In vitro cellular assay (contact assay): kallikrein activity in ellagic acid-activated human plasma, Z-FR-2-AMC substrate. The format is biochemical. The following applies: human plasma activated with ellagic acid, 37° C. On the procedure:
The ability of the compounds disclosed herein to inhibit cellular kallikrein activity was quantified and the respective EC50 value was determined.
All dilutions were prepared in an assay buffer comprising 50 mM Tris-HCl pH 7.2, 150 mM NaCl, and 0.01% Triton X-100.
The ten solutions of the test compounds, prepared by serial dilution, were further diluted 50-fold in the assay buffer.
Human plasma is thawed on ice and centrifuged for 15 min at 4° C. to remove platelets. A 1 mM stock solution of ellagic acid is diluted to 8 μM and mixed with human plasma, after removing platelets, at a ratio of 1:0.8.
A 22.5 μL volume of the final mixture of human plasma and ellagic acid was added to a 96-well microwell plate and the plate was incubated for 15 min at 37° C.
The CINH inhibitor at various concentrations, prepared by serial dilutions as described above, were added to the inhibitor control wells. […] Each CINH concentration is tested in duplicates.
The test compounds at various concentrations, also prepared by serial dilutions as described above, are added to the test wells. […] Each test compound concentration was tested in duplicates.
In addition to the inhibitor control and test wells, the 96 well assay plate includes positive control wells which contained the mixture of human plasma and ellagic acid without C1NH inhibitor or test compounds, and background wells which contained neither the mixture of human plasma and ellagic acid nor the test compounds. The total volume of liquid in positive control and background wells was brought up to 35 μL, using the assay buffer.
The assay plate containing C1NH inhibitors and test compounds mixed with human plasma and ellagic acid and appropriate controls was incubated at 37° C. for 5 min. […] The reagents were mixed well by shaking the plate gently for 30 sec.
The enzyme reaction was quantified by immediate kinetic reading of the assay plate using excitation/emission wavelengths of 330 nm/440 nm respectively. Fluorescence intensity was recorded for 60 min, using a time interval of 43 sec.
The inhibition activity of the test compounds were evaluated using the EC50 values, calculated according to the dose-response curve of the test compounds, fitted using the “log(inhibitor)−response (variable slope)” equation in GraphPadPrism software (GraphPad Software, Inc.).
The percentage inhibition was calculated using the following equation:
[formula] where, Mean (BG) is the average value of the fluorescence intensity of the background wells and Mean (PC) is the average value of the fluorescence intensity of the positive control wells.
Table 4 provides the EC50 values of various compounds disclosed herein.

For the next assay, the target named is human plasma kallikrein (Homo sapiens (Human), UniProt P03952). Put plainly: In vitro enzyme inhibition of human plasma kallikrein (PFR-AMC cleavage). In kind it is biochemical. The settings on record: Pro-Phe-Arg-AMC substrate, 37° C., read-out: hPK IC50. The essentials:
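Human plasma kallikrein and compound, diluted in 50 mM Tris-HCl pH 7.5, 150 mM NaCl, 0.01% Triton X-100, preincubated 5 min at 37 °C before PFR-AMC was added.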

The structures appear in SMILES notation.

Sequence of human plasma kallikrein (P03952 391-638): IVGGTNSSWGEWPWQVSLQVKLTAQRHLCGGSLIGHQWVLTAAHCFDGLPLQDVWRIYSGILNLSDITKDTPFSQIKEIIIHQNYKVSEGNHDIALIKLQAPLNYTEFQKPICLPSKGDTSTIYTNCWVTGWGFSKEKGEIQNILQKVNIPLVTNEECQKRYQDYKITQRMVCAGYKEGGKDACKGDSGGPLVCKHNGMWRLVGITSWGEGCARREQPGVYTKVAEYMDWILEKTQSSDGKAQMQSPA
Sequence of human plasma kallikrein (P03952 20-390 partner): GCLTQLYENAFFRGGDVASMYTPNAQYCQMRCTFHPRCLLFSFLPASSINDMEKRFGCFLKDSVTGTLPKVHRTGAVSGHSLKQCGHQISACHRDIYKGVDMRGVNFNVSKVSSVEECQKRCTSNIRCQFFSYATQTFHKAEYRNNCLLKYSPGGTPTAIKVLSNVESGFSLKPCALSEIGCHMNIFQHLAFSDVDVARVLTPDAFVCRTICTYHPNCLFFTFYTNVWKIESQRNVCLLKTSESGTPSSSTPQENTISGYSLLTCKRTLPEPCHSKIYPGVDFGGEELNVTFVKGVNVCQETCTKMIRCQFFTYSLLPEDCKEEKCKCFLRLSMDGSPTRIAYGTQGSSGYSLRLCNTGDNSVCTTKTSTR
Sequence of cellular kallikrein activity (P03952 391-638): as the sequence (P03952 391-638) above
Sequence of cellular kallikrein activity (P03952 20-390 partner): as the sequence (P03952 20-390 partner) above

Turning to `Cc1cc(CN)nc(C)c1CNC(=O)c1ccnc(Cc2ccc3ncc(C(F)(F)F)cc3c2)c1` [Example 172, N-((6-(aminomethyl)-2,4-dimethylpyridin-3-yl)methyl)-2-((3-(trifluoromethyl)quinolin-6-yl)methyl)isonicotinamide], the EC50 in assay [1] was under 100 nM. Further, at human plasma kallikrein, the IC50 is under 100 nM.
On to `Cc1cc(N)nc(C)c1CNC(=O)c1cc(CC(N)=O)nc(Cc2ccc3ncc(Cl)cc3c2)c1` [Example 214, N-((6-amino-2,4-dimethylpyridin-3-yl)methyl)-2-(2-amino-2-oxoethyl)-6-((3-chloroquinolin-6-yl)methyl)isonicotinamide], for which, in assay [1], the EC50 is under 100 nM. For the same compound, the IC50 on human plasma kallikrein is under 100 nM.
On to `Cc1cc(N)nc(C)c1CNC(=O)c1ccnc(C(O)c2ccc3ncc(Cl)cc3c2)c1` (centres unmarked) [Example 275, N-((6-amino-2,4-dimethylpyridin-3-yl)methyl)-2-((3-chloroquinolin-6-yl)(hydroxy)methyl)isonicotinamide], for which, in assay [1], the EC50 lay within 100 to 1000 nM. For the same compound, the IC50 at human plasma kallikrein was under 100 nM.
In assay [1], `O=C(NCc1cnc2[nH]cc(Cl)c2c1)c1ccnc(Cc2ccc3ncc(C(F)(F)F)cc3c2)c1` [Example 231, N-((3-chloro-1H-pyrrolo[2,3-b]pyridin-5-yl)methyl)-2-((3-(trifluoromethyl)quinolin-6-yl)methyl)isonicotinamide] displayed an EC50 of 100 to 1000 nM. Moreover, at human plasma kallikrein, the IC50 is under 100 nM.
The corresponding values for `Cc1cc(N)nc(C)c1CNC(=O)c1ccnc(Cc2cc(-c3nnn[nH]3)c3ncc(Cl)cc3c2)c1` [Example 272, N-((6-amino-2,4-dimethylpyridin-3-yl)methyl)-2-((3-chloro-8-(1H-tetrazol-5-yl)quinolin-6-yl)methyl)isonicotinamide] are 100 to 1000 nM and under 100 nM.
On the same counts, the results for `Cc1cc(N)nc(C)c1CNC(=O)c1ccnc(Cc2cnc3ncc(Cl)cc3c2)c1` [Example 204, N-((6-amino-2,4-dimethylpyridin-3-yl)methyl)-2-((6-chloro-1,8-naphthyridin-3-yl)methyl)isonicotinamide] are under 100 nM and under 100 nM.
The corresponding values for `Cc1c(CNC(=O)c2ccnc(Cc3ccc4ncc(C(F)(F)F)cc4c3)c2)ccc2c(N)nccc12` [Example 184, N-((1-amino-5-methylisoquinolin-6-yl)methyl)-2-((3-(trifluoromethyl)quinolin-6-yl)methyl)isonicotinamide] are under 100 nM and under 100 nM.
`CCc1cnc2ccc(Cc3cc(C(=O)NCc4ccc5c(N)nccc5c4)ccn3)cc2c1` [Example 283, N-((1-aminoisoquinolin-6-yl)methyl)-2-((3-ethylquinolin-6-yl)methyl)isonicotinamide]: the EC50 in assay [1] is under 100 nM. Moreover, the IC50 on human plasma kallikrein is under 100 nM.
`Cc1cc(N)nc(C)c1CNC(=O)c1cc(CC#N)nc(Cc2ccc3ncc(Cl)cc3c2)c1` [Example 213, N-((6-amino-2,4-dimethylpyridin-3-yl)methyl)-2-((3-chloroquinolin-6-yl)methyl)-6-(cyanomethyl)isonicotinamide] showed an EC50 in assay [1] of under 100 nM. Further, the IC50 on human plasma kallikrein is under 100 nM.
`Cc1cc(N)nc(C)c1CNC(=O)c1cc(Cc2ccc3ncc(Cl)cc3c2)nc(C(N)=O)c1` [Example 208, N^4-((6-amino-2,4-dimethylpyridin-3-yl)methyl)-6-((3-chloroquinolin-6-yl)methyl)pyridine-2,4-dicarboxamide] yielded an EC50 in assay [1] of under 100 nM. In addition, the IC50 at human plasma kallikrein was under 100 nM.
The compound `O=C(NCc1ccc2[nH]cc(Cl)c2c1F)c1ccnc(Cc2ccc3ncc(C4CC4)cc3c2)c1` [Example 248, N-((3-chloro-4-fluoro-1H-indol-5-yl)methyl)-2-((3-cyclopropylquinolin-6-yl)methyl)isonicotinamide] gave an EC50 in assay [1] of 100 to 1000 nM. For the same compound, the IC50 at human plasma kallikrein was under 100 nM.
`Cc1nc2ccc(Cc3cc(C(=O)NCc4ccc(N)nc4C)ccn3)cc2cc1Cl` [Example 239, N-((6-amino-2-methylpyridin-3-yl)methyl)-2-((3-chloro-2-methylquinolin-6-yl)methyl)isonicotinamide] had an EC50 in assay [1] of 100 to 1000 nM. The IC50 on human plasma kallikrein is under 100 nM.
Consider `Cc1cc(N)nc(C)c1CNC(=O)c1ccnc(Cc2cc(N)c3ncc(Cl)cc3c2)c1` [Example 217, N-((6-amino-2,4-dimethylpyridin-3-yl)methyl)-2-((8-amino-3-chloroquinolin-6-yl)methyl)isonicotinamide], for which the EC50 in assay [1] was under 100 nM. Besides, the IC50 at human plasma kallikrein is under 100 nM.
`Nc1nccc2cc(CNC(=O)c3ccnc(Cc4ccc5ncc(C(F)(F)F)cc5c4)c3)c(F)cc12` [Example 182, N-((1-amino-7-fluoroisoquinolin-6-yl)methyl)-2-((3-(trifluoromethyl)quinolin-6-yl)methyl)isonicotinamide] registered an EC50 in assay [1] of 100 to 1000 nM. Also, on human plasma kallikrein, the IC50 was under 100 nM.
The corresponding values for `Cc1cc(N)nc(C)c1CNC(=O)c1ccnc(Cc2cnc3cc(F)c(Cl)cc3c2)c1` [Example 226, N-((6-amino-2,4-dimethylpyridin-3-yl)methyl)-2-((6-chloro-7-fluoroquinolin-3-yl)methyl)isonicotinamide] are under 100 nM and under 100 nM.
The corresponding values for `Cc1cc(N)nc(C)c1CNC(=O)c1ccnc(Cc2cc(CN)c3ncc(Cl)cc3c2)c1` [Example 241, N-((6-amino-2,4-dimethylpyridin-3-yl)methyl)-2-((8-(aminomethyl)-3-chloroquinolin-6-yl)methyl)isonicotinamide] are under 100 nM and under 100 nM.
The corresponding values for `Cc1nc(N)ccc1CNC(=O)c1ccnc(Cc2cc(S(N)(=O)=O)c3ncc(Cl)cc3c2)c1` [Example 236] are under 100 nM and under 100 nM.
`Cc1cc(N)nc(C)c1CNC(=O)c1ccnc(Cc2cnc3[nH]c(C(F)(F)F)cc3c2)c1` [Example 152, N-((6-amino-2,4-dimethylpyridin-3-yl)methyl)-2-((2-(trifluoromethyl)-1H-pyrrolo[2,3-b]pyridin-5-yl)methyl)isonicotinamide] displayed an EC50 in assay [1] of 100 to 1000 nM. For the same compound, the IC50 on human plasma kallikrein was under 100 nM.
In the case of `Cc1nc(N)ccc1CNC(=O)c1ccnc(Cc2ccc3ncc(C(F)(F)F)cc3c2)c1` [Example 229, N-((6-amino-2-methylpyridin-3-yl)methyl)-2-((3-(trifluoromethyl)quinolin-6-yl)methyl)isonicotinamide], the EC50 in assay [1] is under 100 nM. At human plasma kallikrein, the IC50 is under 100 nM.
In assay [1], `Cc1c(CNC(=O)c2ccnc(Cc3ccc4ncc(Cl)cc4c3)c2)ccc2c(N)nccc12` [Example 177, N-((1-amino-5-methylisoquinolin-6-yl)methyl)-2-((3-chloroquinolin-6-yl)methyl)isonicotinamide] had an EC50 of under 100 nM. Moreover, the IC50 at human plasma kallikrein is under 100 nM.
In turn, `Nc1nccc2cc(CNC(=O)c3ccnc(Cc4ccc5ncc(C(F)(F)F)cc5c4)c3)ccc12` [Example 232, N-((1-aminoisoquinolin-6-yl)methyl)-2-((3-(trifluoromethyl)quinolin-6-yl)methyl)isonicotinamide] had an EC50 in assay [1] of under 100 nM. Also, the IC50 at human plasma kallikrein is under 100 nM.
With `Cc1cc(N)nc(C)c1CNC(=O)c1ccnc(C(C)(O)c2ccc3ncc(Cl)cc3c2)c1` (centres unmarked) [Example 277, N-((6-amino-2,4-dimethylpyridin-3-yl)methyl)-2-(1-(3-chloroquinolin-6-yl)-1-hydroxyethyl)isonicotinamide], the EC50 in assay [1] is 100 to 1000 nM. In addition, at human plasma kallikrein, the IC50 was in the range of 100 to 1000 nM.
As for `Cc1cnc2c(S(N)(=O)=O)cc(Cc3cc(C(=O)NCc4cc5c(Cl)c[nH]c5cc4F)ccn3)cc2c1` [Example 287, N-((3-chloro-6-fluoro-1H-indol-5-yl)methyl)-2-((3-methyl-8-sulfamoylquinolin-6-yl)methyl)isonicotinamide], the EC50 in assay [1] was under 100 nM. The IC50 at human plasma kallikrein was under 100 nM.
Turning to `O=C(NCc1cnc2[nH]cc(Cl)c2c1)c1ccnc(Cc2ccc3ncc(C4CC4)cc3c2)c1` [Example 246, N-((3-chloro-1H-pyrrolo[2,3-b]pyridin-5-yl)methyl)-2-((3-cyclopropylquinolin-6-yl)methyl)isonicotinamide], the half-maximal effective concentration (EC50) in assay [1] lay within 100 to 1000 nM. In addition, the IC50 at human plasma kallikrein is under 100 nM.
The compound `Cc1cc(N)nc(C)c1CNC(=O)c1ccnc(Cc2cc(C(C)(C)O)c3ncc(Cl)cc3c2)c1` [Example 219, N-((6-amino-2,4-dimethylpyridin-3-yl)methyl)-2-((3-chloro-8-(2-hydroxypropan-2-yl)quinolin-6-yl)methyl)isonicotinamide] displayed an EC50 in assay [1] of under 100 nM. The IC50 on human plasma kallikrein was under 100 nM.

Values taken from patent US10023557B2 (LifeSci Pharmaceuticals, Inc., priority 2015, dated 2018).
